Target: T1, TIGIT/CD155 complex (Homo sapiens, UniProt Q495A1)
T1 construct: purchased 63ADK000CB07PEG
T1 sequence (Q495A1 22-141 limits assumed): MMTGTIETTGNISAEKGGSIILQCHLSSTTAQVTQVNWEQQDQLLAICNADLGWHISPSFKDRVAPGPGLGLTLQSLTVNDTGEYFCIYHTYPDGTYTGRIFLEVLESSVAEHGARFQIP
Test: HTRF TIGIT/CD155 binding assay (blocking of TIGIT/CD155 complex)
Settings: for TIGIT binding effects compared with compound 1: derivatives with side chains R1, R2, R3 modified; for IC50: read-out: IC50, protein-protein blocking activity for TIGIT/CD155 complex
Procedure: Thus, the most enriched library molecule was found in the TIGIT screening and marked as potential ligand 1 (highlighted red in Figure 2A), whereas it was not observed in the bead-only control (Supplementary Figure S1B). The hit compound 1 was re-synthesized by “off-DNA” (the structure is shown in Figure 2B), and corresponding binding affinity was tested utilizing homogeneous time-resolved fluorescence (HTRF) technology.
For all compounds, the binding affinities were measured with TIGIT/CD155 Binding Assay (Immuno-Oncology, Part # 63ADK000CB07PEG) following the standard kit protocol.

## COc1ccc(C(NC(=O)[C@H](Cc2cccc(C#N)c2)NC(=O)[C@@H](C)c2ccc3cc(OC)ccc3c2)c2ccc(OCC(=O)O)cc2)c(OC)c1 (stereo partly shown) [Compound a19]
  TIGIT binding effects compared with compound 1: improved

## COc1ccc(C(NC(=O)[C@H](Cc2ccsc2)NC(=O)c2ccc3cc(OC)ccc3c2)c2ccc(OCC(=O)O)cc2)c(OC)c1 (stereo partly shown) [Compound a6]
  TIGIT binding effects compared with compound 1: improved

## COc1ccc(C(NC(=O)[C@H](Cc2csc3ccccc23)NC(=O)[C@@H](C)c2ccc3cc(OC)ccc3c2)c2ccc(OCC(=O)O)cc2)c(OC)c1 (stereo partly shown) [Compound a16]
  TIGIT binding effects compared with compound 1: improved

## COc1ccc(C(NC(=O)C(Cc2ccsc2)NC(=O)C(C)c2ccc3cc(OC)ccc3c2)c2ccc(OCC(=O)O)cc2)c(OC)c1 (stereo not shown) [Compound 1]
  IC50: 20.7 µM

## COc1ccc(C(NC(=O)[C@H](Cc2ccc(F)cc2)NC(=O)[C@@H](C)c2ccc3cc(OC)ccc3c2)c2ccc(OCC(=O)O)cc2)c(OC)c1 (stereo partly shown) [Compound a18]
  TIGIT binding effects compared with compound 1: improved

## COc1ccc(C(NC(=O)[C@H](Cc2ccccc2)NC(=O)[C@@H](C)c2ccc3cc(OC)ccc3c2)c2ccc(OCC(=O)O)cc2)c(OC)c1 (stereo partly shown) [Compound a17]
  TIGIT binding effects compared with compound 1: improved

## COc1ccc(C(NC(=O)[C@H](Cc2ccsc2)NC(=O)/C=C/c2ccc3cc(OC)ccc3c2)c2ccc(OCC(=O)O)cc2)c(OC)c1 (stereo partly shown) [Compound a7]
  binding affinity rank among derivatives: highest binding affinity
  TIGIT binding effects compared with compound 1: improved
  IC50: 3.9 µM

## COc1ccc2cc([C@H](C)C(=O)N[C@@H](Cc3csc4ccccc34)C(=O)NCc3ccc(OCC(=O)O)cc3)ccc2c1 [Compound a27]
  TIGIT binding effects compared with compound 1: improved
